Drawing on the METLIN SMRT retention time set (Domingo-Almenara et al. 2019), this text covers RP-LC retention time for 79 compounds.

The data set can be described thus: gradient 5% acetonitrile 3 min, to 50% in 2 min, to 85% in 15 min, held 3 min, 100 µL/min. Conditions: column: Zorbax Extend-C18 2.1 x 50 mm; eluents: water / acetonitrile, 0.1% formic acid. Summed up: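 Values are retention times taken from adduct peaks that software picked and an analyst inspected. The pure standards were run as mixtures of ~100 molecules on HPLC linked to a quadrupole time-of-flight mass spectrometer, in positive and negative ionization mode. A Zorbax Extend-C18 column (2.1 × 50 mm, 1.8 μm) was used at 100 μL/min with water and acetonitrile, each including 0.1% formic acid.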
As for `CCC(=O)N1CCc2sc(S(=O)(=O)N3CCN(c4ccccc4C)CC3)cc2C1`, the RP-LC retention time worked out at 1030 s.

For the compound `CCc1cc(=O)n(CC(=O)Nc2ccc(C)cc2C)c(N2CCOCC2)n1`, the RP-LC retention time came out at 767 s.

Compound `CCn1cnc(S(=O)(=O)N2CCC(C(=O)N3CCc4ccccc4C3)CC2)c1` returned an RP-LC retention time of 729 s.

As to `CN(C)c1cccc(-c2nn3c(CSc4ccccc4)nnc3s2)c1`, the RP-LC retention time was 1070 s.

In turn, `CC(C)CC(=O)Nc1nc(-c2ccc3c(c2)N(C)C(=O)C(C)O3)cs1` (centres undefined) displayed an RP-LC retention time of 921 s.

`CC(C)CCNC(=O)C1CCCN(C(=O)Nc2ccc(NC(=O)NC3CCCC3)cc2)C1` (centres undefined) returned an RP-LC retention time of 762 s.

`O=C(CSc1nc(-c2cccc([N+](=O)[O-])c2)cs1)NCc1ccccc1` came in with an RP-LC retention time of 890 s.

In turn, `CC1CN(c2nc3c(c(=O)n(C)c(=O)n3C)n2Cc2cccc(F)c2)CC(C)O1` (centres undefined) came in with an RP-LC retention time of 885 s.

As for `COc1ccc(C2=NC3(CCCCC3)N(CC(=O)Nc3cc(OC)cc(OC)c3)C2=O)cc1`, the RP-LC retention time came to 660 s.

Regarding `Cc1cccc(-c2nc(CN(c3ccccc3)S(=O)(=O)c3cccs3)c(C)o2)c1`, the RP-LC retention time amounted to 1240 s.

In turn, `CCc1c(C2CCN(C(=O)Nc3ccc(OC)cc3)CC2)noc1N` had an RP-LC retention time of 693 s.

Consider `CC(C)(C)NC(=O)N1CCC(CNC(=O)CSc2ccc(F)cc2)CC1`, for which the RP-LC retention time was 715 s.

`Cc1nc(CNC(=O)C2CCN(C(=O)Nc3ccc(C)c(C)c3)CC2)cs1` came in with an RP-LC retention time of 675 s.

In the case of `CCn1c(=O)oc2cc(S(=O)(=O)N3CCN(C(=O)c4ccnn4C)CC3)ccc21`, the RP-LC retention time came out at 687 s.

With `Cc1ccc(-c2nc(C3CC(=O)N(C4CCCCC4)C3)no2)cn1` (centres undefined), the RP-LC retention time worked out at 771 s.

Regarding `CCN1CCN(C(=O)C2CCN(c3nc4ccc(-c5ccsc5)nc4s3)CC2)CC1`, the RP-LC retention time was 666 s.

`COc1cc(-c2nc3ncccn3c2NC2CCCC2)cc(OC)c1OC`: the RP-LC retention time is 705 s.

For `COc1ccccc1-c1noc(Cn2cnc3c(cnn3-c3ccc(Br)cc3)c2=O)n1`, the RP-LC retention time amounted to 1060 s.

As to `CCOC(=O)c1cn(Cc2ccccc2)c2ccccc2c1=O`, the RP-LC retention time was determined as 769 s.

In turn, `CCc1cccc(NS(=O)(=O)c2cc(-c3c(CC)noc3NC(C)=O)ccc2OC)c1` had an RP-LC retention time of 807 s.

Take `COc1cccc(NC(=O)c2cc(C)n3nc(C)cc3n2)c1`: the RP-LC retention time was determined as 928 s.

With `COC(=O)C1CCN(C(=O)C(=O)Nc2c3c(nn2-c2ccc(Cl)cc2)CSC3)CC1`, the RP-LC retention time amounted to 671 s.

`CCCn1c(=O)c(C)nc2cc(-c3noc(-c4cccc(N(C)C)c4)n3)ccc21` had an RP-LC retention time of 717 s.

`Cn1c(=O)c(-c2ccc(C(=O)NCc3ccc4c(c3)OCO4)cc2)nc2cccnc21` yielded an RP-LC retention time of 872 s.

`Cc1cc(C)n2c(Nc3ccc(C(C)C)cc3)c(-c3ccc(Cl)cc3)nc2n1`: the RP-LC retention time came out at 985 s.

`CCN1C(=O)c2cccnc2Sc2cc(CNC(=O)c3ccc(OC)cc3OC)ccc21` registered an RP-LC retention time of 784 s.

In the case of `Cc1cccc(CN2CCCN(CC(=O)NC(C)CCc3ccccc3)S2(=O)=O)c1` (centres undefined), the RP-LC retention time turned out to be 1080 s.

With `COc1ccc(-c2cn3ccn(-c4cccc(F)c4)c(=O)c3n2)cc1`, the RP-LC retention time stood at 821 s.

As to `Cc1nc(C)c(C(=O)Nc2nc(-c3ccc4c(c3)CCCC4)cs2)s1`, the RP-LC retention time worked out at 1170 s.

The compound `O=C(CN1C(=O)C(C(=O)N2CCCCC2)Sc2ccccc21)N1CCN(c2ccccc2)CC1` (centres undefined) showed an RP-LC retention time of 907 s.

`Cc1cc(Nc2nc(N[C@@H](C)c3ccc(F)cc3)c(C#N)cc2F)n[nH]1` yielded an RP-LC retention time of 877 s.

In the case of `COc1ccc(C(=O)N2C[C@H](c3nc(-c4ccncc4)no3)[C@@H](C)C2)c(OC)c1`, the RP-LC retention time stood at 743 s.

For the compound `CN(C)c1ccc(Nc2nc(-c3ccc(Br)cc3)cs2)cc1`, the RP-LC retention time turned out to be 787 s.

As to `COc1ccc(C(C)NC(=O)Cn2c(=O)nc(-c3ccccc3)c3ccccc32)cc1OC` (centres undefined), the RP-LC retention time worked out at 697 s.

In turn, `Cc1ccc2nc3c(C(=O)NC4CC4)cccn3c(=O)c2c1` gave an RP-LC retention time of 942 s.

Compound `Cc1cc(=O)n(CC(=O)NCc2ccccc2)c(N2CCCCC2)n1` displayed an RP-LC retention time of 652 s.

On to `O=[N+]([O-])c1ccccc1OCC(O)CN1CCN(c2ccccc2F)CC1` (centres undefined), for which the RP-LC retention time was found to be 577 s.

On to `Cn1nc2ccc(S(=O)(=O)N3CCSCC3)cn2c1=O`, for which the RP-LC retention time was 687 s.

Turning to `O=C1CN(Cc2ccc(OC(F)(F)F)cc2)C2(CCCC2)CN1`, the RP-LC retention time was 682 s.

As to `CCN(CC)C(=O)N1CCC(Oc2ccc(-c3noc(COC)n3)cc2)C1` (centres undefined), the RP-LC retention time was 874 s.

`COC(=O)c1cc2c(=O)n(-c3nc(-c4ccccc4)cs3)ccc2nc1C`: the RP-LC retention time stood at 1250 s.

In the case of `COc1cc(NC(=O)NC(C(=O)N2CCc3ccccc32)C(C)C)cc(OC)c1` (centres undefined), the RP-LC retention time was found to be 982 s.

In the case of `CC1=NS(=O)(=O)N(C)C=C1C(=O)OCCC(C)C`, the RP-LC retention time is 966 s.

Regarding `COCCCNC(=O)C1(C)Cn2nc(-c3ccccc3)cc2C(=O)N1c1ccccc1F` (centres undefined), the RP-LC retention time was 830 s.

As to `COC(=O)C1=C(C)NC(C)=C(C(=O)OC2CCCN(Cc3ccccc3)C2)C1c1cccc([N+](=O)[O-])c1` (centres undefined), the RP-LC retention time amounted to 844 s.

In turn, `CC(C)n1cnc(S(=O)(=O)N2CCC(C(=O)NCCCc3ccccc3)CC2)c1` returned an RP-LC retention time of 764 s.

As for `Cc1cc(C)c(CNC(=O)C2CCN(c3cncnc3N3CCOCC3)CC2)c(C)c1`, the RP-LC retention time was determined as 681 s.

Regarding `O=C(C1CCN(c2ncnc3c2oc2ccccc23)CC1)N1CCN(c2ccc(Cl)cc2)CC1`, the RP-LC retention time turned out to be 891 s.

With `Cc1nc2c(sc3nc(-c4ccccc4)ccc32)c(=O)n1CC(=O)Nc1cccc(C(F)(F)F)c1`, the RP-LC retention time was found to be 1160 s.

On to `O=C(CSC1CCc2ccccc2NC1=O)NCc1ccc(Cl)cc1Cl` (centres undefined), for which the RP-LC retention time is 868 s.

The compound `CCCNC(=O)C1CCCN(c2cc(=O)n(C)c(=O)n2C)C1` (centres undefined) yielded an RP-LC retention time of 597 s.

For the compound `O=C(CCc1nc2ccccc2s1)NCC12CCCC=C1NC(=O)CC2` (centres undefined), the RP-LC retention time stood at 695 s.

As for `Cc1oc2ccn(Cc3cccc(F)c3)c(=O)c2c1C(=O)N(C)Cc1ccccc1`, the RP-LC retention time was determined as 898 s.

With `Cc1ccc2[nH]cc(CCN3CC(C(=O)Nc4nnc(C)s4)CC3=O)c2c1` (centres undefined), the RP-LC retention time turned out to be 785 s.

`Cc1ccc(CNS(=O)(=O)c2cc(-c3[nH]ncc3C(=O)N3CCCC3)oc2C)cc1C` displayed an RP-LC retention time of 768 s.

`O=C(Nc1c(-c2ccc(F)cc2)nc2ccccn12)c1cccc([N+](=O)[O-])c1` displayed an RP-LC retention time of 684 s.

On to `O=C(NCC1CC1)c1sc2ncccc2c1-n1cccc1`, for which the RP-LC retention time worked out at 902 s.

The compound `CCC(=O)NCc1nc2c(n1CC)CN(C(=O)c1ccccc1C(F)(F)F)CC2` came in with an RP-LC retention time of 594 s.

Turning to `CCc1cccc(C)c1Nc1c(-c2ccc(Cl)cc2)nc2cnccn12`, the RP-LC retention time stood at 1110 s.

On to `CCn1cc2c3c(cccc31)CN(C(=O)Nc1ccc(SC)cc1)CC2`, for which the RP-LC retention time is 984 s.

With `COCCc1nnc(NC(=O)COc2ccc(Cl)cc2)o1`, the RP-LC retention time stood at 655 s.

`Cc1ccc(-c2ncccc2CNS(=O)(=O)Cc2ccccc2F)cc1` had an RP-LC retention time of 693 s.

Regarding `CCc1ccc(C(=O)N2CCC(COc3ccc(C(=O)NC(C)C)cc3)CC2)cc1`, the RP-LC retention time came out at 941 s.

For `CN(CC1CCOC1)C(=O)c1cc(Cl)ccc1F` (centres undefined), the RP-LC retention time was 719 s.

For `Cc1cc(C(=O)NC(C)C2CC3CCC2C3)c2c(C)noc2n1` (centres undefined), the RP-LC retention time came out at 939 s.

Consider `CC(Oc1ccccc1)C(=O)N1CCC(c2cc(N)on2)CC1` (centres undefined), for which the RP-LC retention time stood at 674 s.

Consider `CCN(CC)CCNC(=O)c1nn(-c2ccc(Cl)cc2)c2c1CCc1cc(OC)ccc1-2`, for which the RP-LC retention time turned out to be 774 s.

`COc1ccc(C2(C(=O)N3CCCCCCN(C)C(=O)[C@@H]4CCC[C@@H]43)CC2)cc1` gave an RP-LC retention time of 922 s.

`CCNC(=O)C1CCCN(c2nc3ncn(CC(=O)Nc4ccc(F)c(F)c4)c(=O)c3s2)C1` (centres undefined): the RP-LC retention time amounted to 670 s.

The compound `COc1ccc(-c2cc3nc(C)cc(N4CCN(c5nc(C)cc(C)n5)CC4)n3n2)cc1OC` registered an RP-LC retention time of 735 s.

For `Cc1ccc(NC(=O)c2cnc3c(c2)c(=O)n(C)c(=O)n3-c2ccccc2)cc1`, the RP-LC retention time was determined as 919 s.

`CC1(CNC(=O)Cc2c[nH]c3ccccc23)CCOCC1` displayed an RP-LC retention time of 668 s.

In turn, `CCN1C(=O)COc2cc(-c3noc(C(=O)NC4CCCCC4)n3)ccc21` gave an RP-LC retention time of 996 s.

`Cc1ccc(C)c(N2CCN(C(=O)c3cc(C)n4nccc4n3)CC2)c1` had an RP-LC retention time of 986 s.

As for `Cc1cc(N2CCN(C)CC2)nc2ccc(NC(=S)N3CCC(Cc4ccccc4)CC3)cc12`, the RP-LC retention time is 636 s.

Turning to `Cc1ccc(-c2nnc(-c3nn(C)c4c3CN(S(=O)(=O)c3cccc(C)c3)CC4)o2)cc1`, the RP-LC retention time was found to be 998 s.

Turning to `COc1cc2nc(C(=O)N3CCCCC3)cc(Nc3cccc(C(F)(F)F)c3)c2cc1OC`, the RP-LC retention time is 752 s.

On to `O=C(Nc1ccc2c(c1)OCO2)Nc1ccc2nc3n(c(=O)c2c1)CCCC3`, for which the RP-LC retention time was found to be 651 s.

`CCc1cc(=O)n(CC(=O)NCc2cccs2)c(-c2ccccc2)n1`: the RP-LC retention time turned out to be 1040 s.
